From US20180002371A1 (BAYLOR COLLEGE OF MEDICINE, priority 2014, published 2018)

Experiments:
[1] = test system: Female ICR mice; experiment: Electrocardiogram (EKG) measurements in mice; assay type: in vivo, mouse
Method: Electrocardiogram (EKG) Measurements. […] Non-invasive EKG recordings were made using the ECGenie system (Mouse Specifics) at several subsequent time points. […] Data acquisition was performed using the program LabChart 6 (ADlnstruments). Individual EKG signals were then evaluated using e-MOUSE physiologic waveform analysis software (Mouse Specifics) as previously described.

[2] = Pharmacokinetic studies of bufalin and 3-phospho-bufalin; settings: p-buf 0.5 mg/kg i.p.
Method: Five quality control (QC) samples at 10 ng/mL, 20 ng/mL, 500 ng/mL, 4000 ng/mL and 8000 ng/mL of plasma were prepared independently of those used for the calibration curves. QC samples were prepared on the day of analysis in the same way as the calibration standards.
Standards, QC samples, and unknown samples were injected into a LC/MS/MS machine for quantitative analysis. […] For i.p. injected P-Buf, the PK trace was fittedto a non-compartmental extravascular model.
P-Buf was dissolved in PBS and administered intraperitoneally at the same dose.

[3] = test system: MDA-MB-231-LM3-3 orthotopic breast tumors; experiment: Therapeutic efficacy in an orthotopic TNBC mouse model; assay type: in vivo; settings: 0.75 mg/kg three times per week
Method: Therapeutic Efficacy of 3-phospho-bufalin in an Orthotopic TNBC Mouse Model. To establish orthotopic breast tumors, 0.75×10^6 MDA-MB-231-LM3-3 cells were injected into one of the second mammary fat pads of nude mice (Charles River Laboratories, female, 6-7 weeks, n=6/group). When tumors became palpable, generally 14 days after injection, mice were randomized into two groups. The treatment group was then injected with phospho-bufalin subcutaneously (0.75 mg/kg per dose, 3 doses per week) for 3 weeks while the control group received PBS. Tumor lengths and widths were measured three times per week. Tumor sizes were calculated by: (length×width×width)/2.
The therapeutic efficacy of P-Buf was tested in an orthotopic TNBC model. LM3-3 cells (0.75×10^6 cells per mouse) were inoculated into the second pair of mammary gland fat pads of nude mice (female, […]). The mice were randomized into two groups based on luciferase imaging (n=6 per group). Fourteen days after tumor inoculation, the treatment group began receiving P-Buf (0.75 mg/kg) three times per week while the control group received PBS. Tumor volumes were measured three times per week. […] At day 31, the mice were euthanized and tumors were harvested. The tumors derived from PBS treated mice weighed ˜2.4 times more than those of the experimental treatment group (FIGS. 8B and C).

[4] = test system: mouse heart tissues; experiment: H-E staining of mouse heart tissues; assay type: in vivo; settings: 24 hours after drug administration
[5] = test system: HCC1143; experiment: Cell cytotoxicity assay (MTT), HCC1143; assay type: cell-based; settings: HCC1143, 72 h, read-out: IC50 cell viability
Method: (§1) Cell Culture. Triple negative breast cancer (TNBC) cell lines HCC1143, SUM149PT, SUM159PT, and MDA-MB-231 were obtained from ATCC. The MDA-MB-231-LM3-3 (LM3-3) cell line was developed from lung metastasis derived from a MDA-MB-231-LM2 xenograft tumor in the mammary fat pad of a SCID mouse.
(§2) The HCC1143 cell line was grown in RPMI-1640 medium, SUM149PT and SUM159PT cell lines were grown in F-12 medium, and MDA-MB-231 cells were grown in DMEM. All culture media were supplemented with 10% fetal bovine serum. All cell lines were grown in a humidified incubator containing 5% CO2 at 37° C. Primary hepatocytes were isolated from an adult male mouse (C57BL) by collagenase perfusion (0.8 mg/mL; Sigma-Aldrich, C5138) through the portal vein and maintained in M199 medium with 10% FBS. The viability of freshly isolated hepatocytes was verified using Trypan blue staining.
(§3) Cell Cytotoxicity Assays. TNBC cells (5000 to 7000 cells per well) were seeded in 96-well plates in medium supplemented with 10% FBS. […] Cell viabilities relative to untreated control cells were plotted using Graphpad Prism.

[6] = target: T1, SRC-3 (Homo sapiens, UniProt Q9Y6Q9); experiment: Western blotting of SRC-3 protein in TNBC cells; assay type: cell-based
T1 construct: endogenous in cells; host or cells: HCC1143, SUM149PT, SUM159PT, MDA-MB-231, MDA-MB-231-LM3-3
T1 sequence (Q9Y6Q9 whole entry): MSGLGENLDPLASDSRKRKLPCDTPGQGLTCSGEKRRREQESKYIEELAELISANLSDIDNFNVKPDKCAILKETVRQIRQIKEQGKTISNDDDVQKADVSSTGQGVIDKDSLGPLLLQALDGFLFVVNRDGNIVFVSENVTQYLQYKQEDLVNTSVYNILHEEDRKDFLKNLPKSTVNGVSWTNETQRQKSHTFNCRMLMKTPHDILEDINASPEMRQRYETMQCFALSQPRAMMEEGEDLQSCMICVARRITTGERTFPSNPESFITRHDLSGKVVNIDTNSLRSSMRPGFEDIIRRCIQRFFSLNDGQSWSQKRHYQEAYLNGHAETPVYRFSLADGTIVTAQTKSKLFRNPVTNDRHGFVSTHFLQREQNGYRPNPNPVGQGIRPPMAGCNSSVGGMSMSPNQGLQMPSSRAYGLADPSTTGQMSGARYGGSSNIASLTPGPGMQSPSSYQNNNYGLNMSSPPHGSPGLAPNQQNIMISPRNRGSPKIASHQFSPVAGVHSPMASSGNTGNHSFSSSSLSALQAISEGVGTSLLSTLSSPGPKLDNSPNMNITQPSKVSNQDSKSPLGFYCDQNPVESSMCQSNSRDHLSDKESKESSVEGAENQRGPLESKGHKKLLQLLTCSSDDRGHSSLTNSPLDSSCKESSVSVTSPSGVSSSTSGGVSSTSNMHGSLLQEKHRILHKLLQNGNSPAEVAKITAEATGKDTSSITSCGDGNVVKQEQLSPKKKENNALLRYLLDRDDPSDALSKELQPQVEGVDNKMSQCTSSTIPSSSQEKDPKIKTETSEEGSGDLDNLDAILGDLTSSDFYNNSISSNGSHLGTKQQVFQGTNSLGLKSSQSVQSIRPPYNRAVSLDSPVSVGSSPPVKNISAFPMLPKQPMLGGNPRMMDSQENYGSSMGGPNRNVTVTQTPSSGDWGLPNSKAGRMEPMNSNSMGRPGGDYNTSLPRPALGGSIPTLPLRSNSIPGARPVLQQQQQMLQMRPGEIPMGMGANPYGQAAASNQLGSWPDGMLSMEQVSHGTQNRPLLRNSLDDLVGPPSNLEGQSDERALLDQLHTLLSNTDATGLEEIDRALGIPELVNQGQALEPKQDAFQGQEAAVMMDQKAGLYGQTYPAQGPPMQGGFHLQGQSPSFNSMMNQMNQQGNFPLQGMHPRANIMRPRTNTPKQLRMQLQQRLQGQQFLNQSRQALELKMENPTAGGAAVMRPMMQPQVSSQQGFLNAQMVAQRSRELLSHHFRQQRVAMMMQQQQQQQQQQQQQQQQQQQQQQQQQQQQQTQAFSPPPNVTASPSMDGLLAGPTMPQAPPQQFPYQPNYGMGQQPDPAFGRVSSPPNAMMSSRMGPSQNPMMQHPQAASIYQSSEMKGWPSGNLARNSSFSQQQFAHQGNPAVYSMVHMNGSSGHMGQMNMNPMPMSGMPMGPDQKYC
Method: Western Blotting Assays. Cell lysate was prepared by adding RIPA buffer (containing 10 mM Tris-Cl pH 8.0, 1 mM EDTA, 0.5 mM EGTA, 1% Triton X-100, 0.1% sodium deoxycholate, 0.1% SDS, 140 mM NaCl, and protease inhibitors) to cells kept on ice. After spinning samples at 16,000 rpm for 15 minutes at 4 ° C., insoluble materials in the collected cell lysate were precipitated and discarded. The total protein concentration was measured using a Bradford protein assay. An equivalent mass of each sample was loaded and electrophoretically separated by 10% SDS-PAGE. Then, proteins on PAGE the gel were transferred to a PVDF membrane. Anti-SRC-3 (Cell Signaling Technology Co. Cat#2126) and anti-actin (Cell Signaling Technology Co. Cat#8457) were used to probe the membranes.

[7] = test system: MDA-MB-231-LM3-3; experiment: Cell cytotoxicity assay (MTT), MDA-MB-231-LM3-3; assay type: cell-based; settings: MDA-MB-231-LM3-3, 72 h, read-out: IC50 cell viability
Method: as §1, §2, §3

[8] = test system: SUM159PT; experiment: Cell cytotoxicity assay (MTT), SUM159PT; assay type: cell-based; settings: 72 h, read-out: IC50 cell viability
Method: as §1, §2, §3

[9] = target: T1, SRC-3; settings: receptor interacting domain; cited from earlier work
[10] = test system: MDA-MB-231; experiment: Cell cytotoxicity assay (MTT), MDA-MB-231; assay type: cell-based; settings: MDA-MB-231, 72 h, read-out: IC50 cell viability
Method: as §1, §2, §3

[11] = test system: LM3-3 cells; experiment: Bufalin and gefitinib cotreatment, cell viability; assay type: cell-based
[12] = test system: LM3-3 cells; experiment: Single cell motility assay; assay type: cell-based
Method: Single Cell Motility Assays. Microtiter 96-well plates pre-coated with collagen V were covered with beads provided by a Cell Motility HCS kit (Thermo Scientific Co. Cat# K0800011). LM3-3 cells (500) were seeded in each bead-coated well. […] The cell track areas (pixels) were counted using Image J. To attain statistical significance, more than 50 cell tracks in each sample were counted.

[13] = test system: SUM149PT; experiment: Cell cytotoxicity assay (MTT), SUM149PT; assay type: cell-based; settings: 72 h, read-out: IC50 cell viability
Method: as §1, §2, §3

[14] = test system: cancer cells; settings: cited from earlier work
[15] = 3-phospho-bufalin 7.5 mg/kg i.p., +10 min post-injection
[16] = 3-phospho-bufalin 7.5 mg/kg i.p., −5 min post-injection (baseline)
[17] = 3-phospho-bufalin 11.25 mg/kg i.p., +5 min post-injection
[18] = 3-phospho-bufalin 11.25 mg/kg i.p., +10 min post-injection
[19] = 3-phospho-bufalin 11.25 mg/kg i.p., +15 min post-injection
[20] = 3-phospho-bufalin 11.25 mg/kg i.p., −5 min post-injection (baseline)

C[C@]12CC[C@H](OP(=O)(O)O)C[C@H]1CC[C@@H]1[C@@H]2CC[C@]2(C)[C@@H](c3ccc(=O)oc3)CC[C@]12O [3-Phospho-Bufalin, 3-Phospho-bufalin]
changes in EKG parameters ([1]; 7.5 mg/kg and 11.25 mg/kg i.p.): no significant changes in EKG parameters were observed
HR [1, 15]: 788.7 ± 1.2 BPM
QRS [1, 15]: 11.0 ± 0.1 ms
QT [1, 15]: 38.2 ± 0.9 ms
QTc [1, 15]: 43.8 ± 1.0 ms
RR [1, 15]: 76.1 ± 0.1 ms
ST [1, 15]: 27.6 ± 0.9 ms
HR [1, 16]: 754.7 ± 6.6 BPM
QRS [1, 16]: 10.6 ± 0.1 ms
QT [1, 16]: 40.2 ± 0.6 ms
QTc [1, 16]: 45.0 ± 0.5 ms
RR [1, 16]: 79.6 ± 0.7 ms
ST [1, 16]: 30.1 ± 0.7 ms
HR [1, 17]: 779.7 ± 1.5 BPM
QRS [1, 17]: 10.9 ± 0.1 ms
QT [1, 17]: 37.1 ± 0.3 ms
QTc [1, 17]: 42.3 ± 0.4 ms
RR [1, 17]: 77.0 ± 0.1 ms
ST [1, 17]: 26.7 ± 0.4 ms
HR [1, 18]: 761.3 ± 7.5 BPM
QRS [1, 18]: 11.1 ± 0.2 ms
QT [1, 18]: 38.1 ± 0.6 ms
QTc [1, 18]: 43.0 ± 0.6 ms
RR [1, 18]: 78.8 ± 0.8 ms
ST [1, 18]: 26.6 ± 0.5 ms
HR [1, 19]: 755.0 ± 1.0 BPM
QRS [1, 19]: 11.5 ± 0.1 ms
QT [1, 19]: 39.1 ± 0.9 ms
QTc [1, 19]: 43.9 ± 0.9 ms
RR [1, 19]: 79.5 ± 0.1 ms
ST [1, 19]: 28.1 ± 0.8 ms
HR [1, 20]: 798.0 ± 12.8 BPM
QRS [1, 20]: 10.6 ± 0.3 ms
QT [1, 20]: 39.1 ± 2.4 ms
QTc [1, 20]: 45.1 ± 2.9 ms
RR [1, 20]: 75.8 ± 0.2 ms
ST [1, 20]: 29.0 ± 2.2 ms
AUCInf ([2]; mice): 0.046 ± 0.018 µM·h
AUClast/D ([2]; mice): 0.075 ± 0.044 µM·kg·h/mg
conversion to parent bufalin in vivo ([2]; free bufalin detected in plasma): can be converted to parent bufalin in vivo
tumor weight, PBS treated mice relative to treatment group ([3]; day 31): ~2.4 times
TNBC tumor growth (tumor volume) ([3]; nude mice, LM3-3 tumors): can significantly inhibit TNBC tumor growth
histological examination of cardiomyocytes [4]: little damage to cardiomyocytes

C[C@]12CC[C@H](O)C[C@H]1CC[C@@H]1[C@@H]2CC[C@]2(C)[C@@H](c3ccc(=O)oc3)CC[C@]12O [Bufalin, bufalin]
IC50 [5]: 71.8 nM
SRC-3 protein expression ([6]; 100 nM, HCC1143, SUM149PT, SUM159PT, MDA-MB-231, MDA-MB-231-LM3-3): downregulate SRC-3 protein expression
SRC-3 protein level, dose dependence ([6]; MDA-MB-231-LM3-3): downregulated SRC-3 in MDA-MB-231-LM3-3 in a dose-dependent manner
IC50 [7]: < 20 nM
IC50 [8]: < 20 nM
binding to SRC-3 [9]: directly binds to SRC-3 in its receptor interacting domain
IC50 [10]: < 20 nM
synergy with gefitinib on cell viability ([11]; 5 or 10 nM bufalin with gefitinib, LM3-3 cells): synergize with gefitinib
toxicity toward LM3-3 cells under motility assay conditions ([12]; 12 hour time point): minimal toxicity
motility of LM3-3 cells ([12]; increasing concentrations of bufalin): decreased with increasing concentrations of bufalin
IC50 [13]: < 20 nM
IC50 values [14]: low nM range

COc1cc2ncnc(Nc3ccc(F)c(Cl)c3)c2cc1OCCCN1CCOCC1 [gefitinib]
toxicity in LM3-3 cells ([11]; gefitinib alone, up to 20 μM): minimal toxicity
